Laboratory results as given in US20060276464A1, “Diarylsulfone sulfonamides and use thereof” (Wyeth, priority 2005, published 2006).
Values joined by “and” are separate entries in the source; they are usually repeats but may differ in a detail not shown here. Equal entries are not always repeated. Where two headings read alike, the source gives them in different places.

What was measured:
[1] = target: T1, SFRP-1 (Homo sapiens, UniProt Q8N474); test: Fluorescence polarization binding assay (competitive displacement of a probe compound from SFRP-1); conditions: fluorescence anisotropy, 45 nM SFRP-1, 20 nM probe;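 also: test compound competes with a fluorescent probe held by SFRP-1, seen as a drop in probe anisotropy after incubation in darkness, with anisotropy as function of rising compound dose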
T1 sequence (Q8N474 32-314): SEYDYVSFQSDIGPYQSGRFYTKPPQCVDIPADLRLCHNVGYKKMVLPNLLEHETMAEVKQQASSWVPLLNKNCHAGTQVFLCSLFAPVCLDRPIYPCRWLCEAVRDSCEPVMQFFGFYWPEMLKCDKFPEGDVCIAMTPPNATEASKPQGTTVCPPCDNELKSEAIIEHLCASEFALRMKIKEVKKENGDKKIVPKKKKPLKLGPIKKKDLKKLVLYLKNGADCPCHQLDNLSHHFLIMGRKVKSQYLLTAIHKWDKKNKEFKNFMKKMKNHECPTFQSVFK

[2] = target: T1, SFRP-1; test: Cell-based assay for in vitro measurement of SFRP-1/SARP2 antagonist activity (U2OS cells co-transfected with 16x TCF-tk-Luciferase reporter, Wnt and hSFRP-1); conditions: for fold induction at 10 µM / fold induction at 15 µM: U2OS; for fold induction at 10 µM: read-out: Fold Induction with SFRP-1, U2OS cells, single dose 10 μM, luciferase reporter, fold induction over SFRP-1 control;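 as to all read-outs here: U2OS cells co-transfected with a TCF-tk luciferase reporter, a Wnt vector, hSFRP-1 or empty vector and CMV-βgal, luciferase luminescence read in cell lysates alongside βgal activity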
[3] = read-out: Fold Induction with SFRP-1, Conc 15 μM, with SFRP-1, fold induction over SFRP-1 control, single dose
[4] = read-out: Fold Induction without SFRP-1, Conc 15 μM, without SFRP-1, single dose
[5] = read-out: Fold Induction with SFRP-1, Conc 15 μM, single dose, luciferase reporter, fold induction over SFRP-1 control, cells with SFRP-1
[6] = read-out: Fold Induction without SFRP-1, Conc 15 μM, single dose, luciferase reporter, cells without SFRP-1 (specificity control)

Row | SMILES | IC50 [1] | EC50 [2] [nM] | fold induction at 10 µM [2] | other results
1 | O=C(O)c1cccc(N2CCC(CCNS(=O)(=O)c3cc(S(=O)(=O)c4ccccc4)ccc3C(F)(F)F)CC2)c1 [Example 957, 3-{4-[2-({[5-(phenylsulfonyl)-2-(trifluoromethyl)phenyl]sulfonyl}amino)ethyl]piperidin-1-yl}benzoic acid] | 300 nM | 1390 | 3.9 | –
2 | Nc1ccc(CNS(=O)(=O)c2cc(S(=O)(=O)c3ccccc3)ccc2C(F)(F)F)cc1 [Example 942, N-(4-aminobenzyl)-5-(phenylsulfonyl)-2-(trifluoromethyl)benzenesulfonamide] | 190 nM | 209 | 3.8 | –
3 | Cc1nn(C)c(Cl)c1S(=O)(=O)c1ccc(C(C)C)c(S(=O)(=O)NC2CCOCC2)c1 [Example 569, 5-[(5-chloro-1,3-dimethyl-1H-pyrazol-4-yl)sulfonyl]-2-isopropyl-N-(tetrahydro-2H-pyran-4-yl)benzenesulfonamide] | 1500 nM | – | – | fold induction at 15 µM ([2]; read-out: Fold Induction with SFRP-1): 3.8; fold induction at 15 µM ([2]; read-out: Fold Induction without SFRP-1): 1.1
4 | CN(CCNS(=O)(=O)c1cc(S(=O)(=O)c2ccccc2)ccc1C(F)(F)F)CC(=O)OC(C)(C)C [Example 962, tert-butyl N-methyl-N-[2-({[5-(phenylsulfonyl)-2-(trifluoromethyl)phenyl]sulfonyl}amino)ethyl]glycinate] | 3000 nM | 2860 | 2.7 | –
5 | O=S(=O)(NC[C@@H](O)c1ccccc1)c1cc(S(=O)(=O)c2ccccc2)ccc1C(F)(F)F [Example 774, N-[(2S)-2-hydroxy-2-phenylethyl]-5-(phenylsulfonyl)-2-(trifluoromethyl)benzenesulfonamide] | 60 nM | 973 | 1.3 | –
6 | O=S(=O)(NCCc1cccnc1)c1cc(S(=O)(=O)c2ccccc2)ccc1C(F)(F)F [Example 677, 5-(phenylsulfonyl)-N-(2-pyridin-3-ylethyl)-2-(trifluoromethyl)benzenesulfonamide] | 160 nM | 489 | 3.8 | –
7 | CC(=O)N1CC[C@H](C(=O)N2CCC(NS(=O)(=O)c3cc(S(=O)(=O)c4ccccc4)ccc3C(F)(F)F)CC2)C1 [Example 1065, N-(1-{[(3S)-1-acetylpyrrolidin-3-yl]carbonyl}piperidin-4-yl)-5-(phenylsulfonyl)-2-(trifluoromethyl)benzenesulfonamide] | 50 nM | 167 | – | –
8 | Cc1ccc(S(=O)(=O)c2ccccc2)cc1S(=O)(=O)NCCc1ccccn1 [Example 205, 2-methyl-5-(phenylsulfonyl)-N-(2-pyridin-2-ylethyl)benzenesulfonamide] | 3000 nM | – | – | fold induction at 15 µM [2, 3]: 2.3; fold induction at 15 µM [2, 4]: 0.8
9 | COc1ccc(NC(=O)N(C)CCNS(=O)(=O)c2cc(S(=O)(=O)c3ccccc3)ccc2C(F)(F)F)cc1 [Example 830, N-{2-[{[(4-methoxyphenyl)amino]carbonyl}(methyl)amino]ethyl}-5-(phenylsulfonyl)-2-(trifluoromethyl)benzenesulfonamide] | 600 nM | 1870 | 3.3 | –
10 | Cc1ccc(S(=O)(=O)c2ccccc2)cc1S(=O)(=O)NC1CCN(C(=O)c2ccc(Cl)cc2)CC1 [Example 466, N-[1-(4-chlorobenzoyl)piperidin-4-yl]-2-methyl-5-(phenylsulfonyl)benzenesulfonamide] | 1700 nM | – | – | fold induction at 15 µM [2, 3]: 1.7; fold induction at 15 µM [2, 4]: 1.1
11 | O=S(=O)(N[C@@H]1CCCNC1)c1cc(S(=O)(=O)c2ccccc2)ccc1C(F)(F)F [Example 791, 5-(phenylsulfonyl)-N-[(3R)-piperidin-3-yl]-2-(trifluoromethyl)benzenesulfonamide] | 3000 nM | – | 3.8 | –
12 | CCc1ccc(S(=O)(=O)c2ccccc2)cc1S(=O)(=O)NC1CCN(C(=O)OC(C)(C)C)CC1 [Example 909, tert-butyl 4-({[2-ethyl-5-(phenylsulfonyl)phenyl]sulfonyl}amino)piperidine-1-carboxylate] | 1000 nM | 2580 | 2.3 | –
13 | CC(C)c1ccc(S(=O)(=O)c2cccc(C#N)c2)cc1S(=O)(=O)NCCc1ccccn1 [Example 539, 5-[(3-cyanophenyl)sulfonyl]-2-isopropyl-N-(2-pyridin-2-ylethyl)benzenesulfonamide] | 2600 nM | – | – | fold induction at 15 µM [2, 5]: 2.9; fold induction at 15 µM [2, 6]: 1.2
14 | CC(C)(C)OC(=O)N1CCC(CCNS(=O)(=O)c2cc(S(=O)(=O)c3ccccc3)ccc2C(F)(F)F)CC1 [Example 931, tert-butyl 4-[2-({[5-(phenylsulfonyl)-2-(trifluoromethyl)phenyl]sulfonyl}amino)ethyl]piperidine-1-carboxylate] | 4000 nM | 1300 | 2.9 | –
15 | COc1ccc(C(=O)N2CCC(NS(=O)(=O)c3cc(S(=O)(=O)c4ccccc4)ccc3C)CC2)cc1OC [Example 464, N-[1-(3,4-dimethoxybenzoyl)piperidin-4-yl]-2-methyl-5-(phenylsulfonyl)benzenesulfonamide] | 3000 nM | – | – | fold induction at 15 µM [2, 3]: 2.1; fold induction at 15 µM [2, 4]: 1
16 | N#CCN1CCC(NS(=O)(=O)c2cc(S(=O)(=O)c3ccccc3)ccc2C(F)(F)F)CC1 [Example 750, N-[1-(cyanomethyl)piperidin-4-yl]-5-(phenylsulfonyl)-2-(trifluoromethyl)benzenesulfonamide] | 200 nM | 937 | 4.2 | –
17 | CC(C)c1ccc(S(=O)(=O)c2ccc(N(C)CCC#N)cc2)cc1S(=O)(=O)NCC1CCOCC1 [Example 581, 5-({4-[(2-cyanoethyl)(methyl)amino]phenyl}sulfonyl)-2-isopropyl-N-(tetrahydro-2H-pyran-4-ylmethyl)benzenesulfonamide] | 1000 nM | – | – | fold induction at 15 µM [2, 5]: 2.2; fold induction at 15 µM [2, 6]: 1.3
18 | CC(C)c1ccc(S(=O)(=O)c2ccccc2)cc1S(=O)(=O)NC1CCCC(C(=O)O)C1 (centres unmarked) [Example 952, 3-({[2-isopropyl-5-(phenylsulfonyl)phenyl]sulfonyl}amino)cyclohexanecarboxylic acid] | 5000 nM | – | 1.4 | –
19 | CC(C)c1ccc(S(=O)(=O)c2ccc(F)cc2)cc1S(=O)(=O)NCCn1ccnc1 [Example 318, 5-[(4-fluorophenyl)sulfonyl]-N-[2-(1H-imidazol-1-yl)ethyl]-2-isopropylbenzenesulfonamide] | 400 nM and 500 nM and 600 nM and 700 nM and 900 nM | – | – | fold induction at 15 µM [2, 3]: 3.9; fold induction at 15 µM [2, 4]: 1.1
20 | CN(CCNS(=O)(=O)c1cc(S(=O)(=O)c2ccccc2)ccc1C(F)(F)F)C(=O)N[C@@H]1CCCNC1 [Example 1022, N-[2-(methyl{[(3R)-piperidin-3-ylamino]carbonyl}amino)ethyl]-5-(phenylsulfonyl)-2-(trifluoromethyl)benzenesulfonamide] | 170 nM | 726 | – | –
21 | O=C(c1ccc(=O)n(S(=O)(=O)c2cc(S(=O)(=O)c3ccccc3)ccc2C(F)(F)F)c1)N1CCC(NS(=O)(=O)c2cc(S(=O)(=O)c3ccccc3)ccc2C(F)(F)F)CC1 [Example 1020, N-{1-[(6-oxo-1-{[5-(phenylsulfonyl)-2-(trifluoromethyl)phenyl]sulfonyl}-1,6-dihydropyridin-3-yl)carbonyl]piperidin-4-yl}-5-(phenylsulfonyl)-2-(trifluoromethyl)benzenesulfonamide] | 600 nM | 264 | – | –
22 | O=C(O)c1cccc(S(=O)(=O)N2CCCC2CCNS(=O)(=O)c2cc(S(=O)(=O)c3ccccc3)ccc2C(F)(F)F)c1 (centres unmarked) [Example 920, 3-({2-[2-({[5-(phenylsulfonyl)-2-(trifluoromethyl)phenyl]sulfonyl}amino)ethyl]pyrrolidin-1-yl)sulfonyl)benzoic acid] | 280 nM | 1810 | 2.2 | –
23 | O=C(NCCNS(=O)(=O)c1cc(S(=O)(=O)c2ccccc2)ccc1C(F)(F)F)c1ccccc1 [Example 770, N-[2-({[5-(Phenylsulfonyl)-2-(trifluoromethyl)phenyl]sulfonyl}amino)ethyl]benzamide] | 2700 nM | – | 1.7 | –
24 | CCC(CC)C(=O)N(C)CCNS(=O)(=O)c1cc(S(=O)(=O)c2ccccc2)ccc1C(F)(F)F [Example 864, 2-ethyl-N-methyl-N-[2-({[5-(phenylsulfonyl)-2-(trifluoromethyl)phenyl]sulfonyl}amino)ethyl]butanamide] | 300 nM | 1800 | 3.2 | –
25 | O=C(CN1CCC(NS(=O)(=O)c2cc(S(=O)(=O)c3ccccc3)ccc2C(F)(F)F)CC1)N1CCOCC1 [Example 1087, N-[1-(2-morpholin-4-yl-2-oxoethyl)piperidin-4-yl]-5-(phenylsulfonyl)-2-(trifluoromethyl)benzenesulfonamide] | 130 nM | 746 | – | –
26 | Cc1ccc(S(=O)(=O)c2ccccc2)cc1S(=O)(=O)NC1CCN(C(=O)OCC(C)C)CC1 [Example 498, isobutyl 4-({[2-methyl-5-(phenylsulfonyl)phenyl]sulfonyl}amino)piperidine-1-carboxylate] | 2200 nM | – | – | fold induction at 15 µM [2, 5]: 1.8; fold induction at 15 µM [2, 6]: 1
